Measured values reported in patent US7790709B2 (dated 2010).

melting point	SMILES
185 to 187 °C	CN(Cc1cc2ccccc2n1C)C(=O)/C=C/c1ccc(N2C(=O)CCC2=O)nc1
225 to 227 °C	CN(Cc1cc2ccccc2n1C)C(=O)/C=C/c1ccc(NC(=O)CCC(N)=O)nc1
206 to 209 °C (dec.)	CN(Cc1cc2ccccc2n1C)C(=O)/C=C/c1ccc(NC(=O)CCC(=O)N2CCOCC2)nc1
